Experiments:
Androgen receptor = molecular target: T1, Androgen receptor (Homo sapiens, UniProt P10275)
T1 sequence (P10275 whole entry): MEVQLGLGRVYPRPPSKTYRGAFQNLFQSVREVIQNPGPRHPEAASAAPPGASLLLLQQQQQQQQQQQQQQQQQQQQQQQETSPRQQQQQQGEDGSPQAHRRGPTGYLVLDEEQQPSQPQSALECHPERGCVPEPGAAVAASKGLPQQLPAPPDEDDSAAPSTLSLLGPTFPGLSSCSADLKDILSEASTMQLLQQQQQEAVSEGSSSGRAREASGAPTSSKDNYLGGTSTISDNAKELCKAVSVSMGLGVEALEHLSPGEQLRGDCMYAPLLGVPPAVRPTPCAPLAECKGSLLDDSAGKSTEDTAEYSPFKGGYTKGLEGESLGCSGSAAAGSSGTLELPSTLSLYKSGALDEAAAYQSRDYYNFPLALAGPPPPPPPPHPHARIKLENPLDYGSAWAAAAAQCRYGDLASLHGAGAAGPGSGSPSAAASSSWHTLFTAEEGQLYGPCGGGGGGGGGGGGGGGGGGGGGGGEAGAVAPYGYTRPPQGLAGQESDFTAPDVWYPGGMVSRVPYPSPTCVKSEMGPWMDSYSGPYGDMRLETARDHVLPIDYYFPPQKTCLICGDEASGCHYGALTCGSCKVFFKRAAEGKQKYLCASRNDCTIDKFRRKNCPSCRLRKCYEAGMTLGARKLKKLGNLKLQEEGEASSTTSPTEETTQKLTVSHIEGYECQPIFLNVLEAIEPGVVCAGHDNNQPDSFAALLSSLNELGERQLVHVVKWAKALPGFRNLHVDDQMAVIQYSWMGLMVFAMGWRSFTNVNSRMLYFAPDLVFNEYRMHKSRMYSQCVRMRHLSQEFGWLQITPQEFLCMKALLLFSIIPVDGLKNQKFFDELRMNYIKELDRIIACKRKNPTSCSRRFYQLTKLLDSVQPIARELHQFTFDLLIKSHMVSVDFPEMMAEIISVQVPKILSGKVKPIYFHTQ

[1] = molecular target: T2, Alpha-2A adrenergic receptor (Homo sapiens, UniProt P08913); type: functional, cell-based
T2 sequence (P08913 whole entry): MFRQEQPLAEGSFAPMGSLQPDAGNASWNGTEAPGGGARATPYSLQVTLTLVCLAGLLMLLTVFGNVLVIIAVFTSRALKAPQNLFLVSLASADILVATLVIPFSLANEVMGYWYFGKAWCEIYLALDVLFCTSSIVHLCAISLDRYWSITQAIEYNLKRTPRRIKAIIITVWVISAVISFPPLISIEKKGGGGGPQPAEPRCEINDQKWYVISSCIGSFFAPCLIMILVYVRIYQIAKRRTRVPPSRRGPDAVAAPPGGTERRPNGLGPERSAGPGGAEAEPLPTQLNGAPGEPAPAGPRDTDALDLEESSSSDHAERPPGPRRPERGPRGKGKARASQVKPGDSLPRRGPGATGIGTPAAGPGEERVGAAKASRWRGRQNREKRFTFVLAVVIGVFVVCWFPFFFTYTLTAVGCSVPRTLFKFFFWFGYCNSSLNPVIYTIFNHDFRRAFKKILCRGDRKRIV

[2] = molecular target: T2, Alpha-2A adrenergic receptor; type: functional, cell-based; remark: listed apart in the source
[3] = molecular target: Beta-2 adrenergic receptor (Homo sapiens, UniProt P07550)
[4] = molecular target: Growth hormone secretagogue receptor type 1 (Homo sapiens, UniProt Q92847)
[5] = molecular target: T3, Neuropeptide Y receptor type 1 (Homo sapiens, UniProt P25929)
T3 sequence (P25929 whole entry): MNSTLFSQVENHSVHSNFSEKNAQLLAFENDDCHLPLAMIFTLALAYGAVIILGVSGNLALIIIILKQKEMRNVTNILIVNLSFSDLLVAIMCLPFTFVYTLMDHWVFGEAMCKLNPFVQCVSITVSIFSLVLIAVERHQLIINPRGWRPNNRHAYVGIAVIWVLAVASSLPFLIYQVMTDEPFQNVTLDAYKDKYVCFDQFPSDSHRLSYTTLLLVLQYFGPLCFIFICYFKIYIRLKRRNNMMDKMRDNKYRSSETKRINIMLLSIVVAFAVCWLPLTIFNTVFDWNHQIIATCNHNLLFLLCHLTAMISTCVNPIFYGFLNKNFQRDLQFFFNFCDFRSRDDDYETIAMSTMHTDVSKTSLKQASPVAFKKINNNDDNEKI

[6] = molecular target: T4, Equilibrative nucleoside transporter 1 (Homo sapiens, UniProt Q99808)
T4 sequence (Q99808 whole entry): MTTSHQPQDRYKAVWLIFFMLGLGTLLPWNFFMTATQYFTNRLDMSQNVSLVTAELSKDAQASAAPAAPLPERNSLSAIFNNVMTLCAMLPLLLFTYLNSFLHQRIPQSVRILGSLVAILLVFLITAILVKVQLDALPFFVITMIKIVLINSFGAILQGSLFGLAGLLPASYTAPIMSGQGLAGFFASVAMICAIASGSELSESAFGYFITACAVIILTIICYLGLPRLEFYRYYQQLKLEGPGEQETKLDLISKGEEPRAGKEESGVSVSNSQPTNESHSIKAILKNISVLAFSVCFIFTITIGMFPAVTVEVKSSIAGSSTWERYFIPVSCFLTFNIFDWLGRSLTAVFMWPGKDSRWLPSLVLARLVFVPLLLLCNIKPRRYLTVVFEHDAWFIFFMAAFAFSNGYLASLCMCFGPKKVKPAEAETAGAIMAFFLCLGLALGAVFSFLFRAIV

[7] = molecular target: T5, Amine oxidase [flavin-containing] A (Homo sapiens, UniProt P21397); type: functional
T5 sequence (P21397 whole entry): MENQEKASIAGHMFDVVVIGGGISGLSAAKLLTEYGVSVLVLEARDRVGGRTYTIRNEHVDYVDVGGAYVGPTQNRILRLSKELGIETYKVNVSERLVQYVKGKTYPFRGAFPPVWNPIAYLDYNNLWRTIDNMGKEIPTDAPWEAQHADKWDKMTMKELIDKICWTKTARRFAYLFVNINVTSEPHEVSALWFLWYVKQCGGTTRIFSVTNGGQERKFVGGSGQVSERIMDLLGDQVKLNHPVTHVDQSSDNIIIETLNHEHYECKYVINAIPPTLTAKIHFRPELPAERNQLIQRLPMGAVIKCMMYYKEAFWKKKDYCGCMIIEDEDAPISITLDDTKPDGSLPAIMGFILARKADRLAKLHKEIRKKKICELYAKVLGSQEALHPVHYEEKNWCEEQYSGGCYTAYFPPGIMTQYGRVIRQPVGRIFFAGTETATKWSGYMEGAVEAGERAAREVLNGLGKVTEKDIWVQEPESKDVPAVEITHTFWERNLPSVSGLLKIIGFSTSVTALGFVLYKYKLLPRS

Histamine H3 receptor = Histamine H3 receptor (Homo sapiens, UniProt Q9Y5N1)

Measured: AC50
Also: assay procedure not described here.

Histamine H3 receptor, sequence (Q9Y5N1 whole entry): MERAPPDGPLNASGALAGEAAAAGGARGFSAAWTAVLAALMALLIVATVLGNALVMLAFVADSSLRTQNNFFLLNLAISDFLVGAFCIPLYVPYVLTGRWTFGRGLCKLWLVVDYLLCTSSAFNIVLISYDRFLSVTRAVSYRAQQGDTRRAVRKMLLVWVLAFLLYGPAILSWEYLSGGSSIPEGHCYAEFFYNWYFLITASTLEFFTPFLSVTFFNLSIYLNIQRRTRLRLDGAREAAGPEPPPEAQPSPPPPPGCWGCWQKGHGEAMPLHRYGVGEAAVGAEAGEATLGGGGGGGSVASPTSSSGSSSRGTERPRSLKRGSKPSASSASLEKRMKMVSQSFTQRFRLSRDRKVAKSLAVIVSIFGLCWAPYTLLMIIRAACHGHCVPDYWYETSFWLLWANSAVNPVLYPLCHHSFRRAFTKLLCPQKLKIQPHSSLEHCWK
Growth hormone secretagogue receptor type 1, sequence (Q92847 whole entry): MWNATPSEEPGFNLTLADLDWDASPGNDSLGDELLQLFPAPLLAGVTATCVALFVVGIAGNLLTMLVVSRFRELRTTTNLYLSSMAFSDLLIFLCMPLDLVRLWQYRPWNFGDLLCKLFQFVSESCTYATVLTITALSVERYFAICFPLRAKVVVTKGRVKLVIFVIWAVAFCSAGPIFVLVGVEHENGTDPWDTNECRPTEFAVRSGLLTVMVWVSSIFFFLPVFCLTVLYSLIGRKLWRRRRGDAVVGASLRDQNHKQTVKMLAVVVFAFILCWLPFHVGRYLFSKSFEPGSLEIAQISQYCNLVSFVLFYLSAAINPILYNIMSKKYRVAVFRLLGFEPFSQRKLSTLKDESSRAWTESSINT

CN(C)c1ccc(C(=C2C=CC(=[N+](C)C)C=C2)c2ccc(N(C)C)cc2)cc1 [GENTIAN VIOLET]
> 30 µM: Androgen receptor

HYDROXOCOBALAMIN
not listed: Androgen receptor
> 30 µM: all other assays above

Source: ChEMBL document CHEMBL5291721, “A preclinical secondary pharmacology resource illuminates target-adverse drug reaction associations of marketed drugs” (Nat Commun, 2023)
